Experimental data from ChEMBL document CHEMBL1201862, “PubChem BioAssay data set” (2004).
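All cell lines were grown in 96-well plates and treated with compound for 48 hours. GI50: concentration for 50% inhibition of growth.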 The source made the active and inactive calls. Cut-off read from the data, not from the text of the source: active = GI50 up to about 1.1 µM and inactive = higher.

Columns and labels:
Assay in all cases: inhibition of tumour cell growth, NCI panel, 48 h
[1] = test system: PC-3
[2] = test system: Malme-3M
[3] = test system: MOLT-4
[4] = test system: SN12C
[5] = test system: ACHN
[6] = test system: SNB-19
[7] = test system: NCI-H226
[8] = test system: 786-0
[9] = test system: A549
[10] = test system: NCI-H460
[11] = test system: TK-10
[12] = test system: HOP-92
[13] = test system: K562
[14] = test system: U-251
[15] = test system: UACC-62
[16] = test system: SF-539
[17] = test system: OVCAR-8
[18] = test system: HL-60
[19] = test system: T47D

Measured: GI50

Nn1c(CCCCCCCCc2nnc(COc3c(O)ccc4ccccc34)n2N)nnc1COc1c(O)ccc2ccccc12
inactive: [1] > 100 µM | [2] > 100 µM | [3] > 100 µM | [4] > 100 µM | [5] > 100 µM | [6] > 100 µM | [7] > 100 µM | [8] 99.3 µM | [9] > 100 µM | [10] 57.9 µM | [11] > 100 µM | [12] > 100 µM | [13] > 100 µM | [14] > 100 µM | [15] > 100 µM

Cc1cc2c(C)n(Cc3ccc(Cl)cc3Cl)nc2c(C#N)c1C
inactive: [2] 24.9 µM | [16] 27.2 µM | [3] > 100 µM | [4] 53.3 µM | [17] 14.8 µM | [5] 49 µM | [6] 15.7 µM | [7] > 42.2 µM | [8] 13.6 µM | [9] 28.2 µM | [10] 35.9 µM | [11] 23.7 µM | [12] 13.6 µM | [13] > 100 µM | [14] 22.1 µM | [15] > 100 µM | [18] > 100 µM

COc1ccc(C(CC(=O)c2ccccc2)C(=O)c2ccc3c(c2)OCO3)cc1 (stereo not drawn)
inactive: [19] 77.3 µM | [1] > 100 µM | [2] 79.3 µM | [3] > 100 µM | [4] > 100 µM | [17] > 100 µM | [5] > 100 µM | [6] > 100 µM | [7] > 100 µM | [8] > 100 µM | [9] > 100 µM | [10] > 100 µM | [11] > 100 µM | [13] > 100 µM | [14] > 100 µM | [15] > 100 µM | [18] > 100 µM

CC(C)(C)C1CCC2c3c([nH]c4ccccc34)C3C(=O)N(c4cccc([N+](=O)[O-])c4)C(=O)C3C2C1 (stereo not drawn)
inactive: [19] 28.8 µM | [1] 27 µM | [2] 23.2 µM | [16] 49.9 µM | [3] 6.84 µM | [4] 7 µM | [17] 25.7 µM | [5] 36.2 µM | [6] 55.8 µM | [7] 25.4 µM | [8] 17.4 µM | [9] 39.5 µM | [10] 13.6 µM | [11] 38.5 µM | [12] 61.5 µM | [13] > 100 µM | [14] > 100 µM | [15] 23.4 µM

COc1ccc(OC)c(NC(=O)C(=O)C(C(C)=O)c2nc3ccc(Cl)cc3nc2O)c1 (stereo not drawn)
inactive: [2] > 50 µM | [16] > 50 µM | [3] > 50 µM | [4] > 50 µM | [17] > 50 µM | [5] > 50 µM | [6] > 50 µM | [7] > 50 µM | [8] > 50 µM | [9] > 50 µM | [10] > 50 µM | [11] > 50 µM | [12] > 50 µM | [13] > 50 µM | [14] > 50 µM | [15] > 50 µM | [18] > 50 µM

COC1(OC)CC2CCCCC2=C(C)N1S(=O)(=O)c1ccccc1 (stereo not drawn)
inactive: [2] > 100 µM | [16] > 100 µM | [3] > 10 µM | [4] > 100 µM | [17] > 100 µM | [5] > 100 µM | [6] > 100 µM | [7] > 100 µM | [8] > 100 µM | [9] > 100 µM | [10] > 100 µM | [11] > 100 µM | [12] > 100 µM | [13] > 100 µM | [14] > 100 µM | [15] > 100 µM | [18] > 100 µM

N#Cc1cc([N+](=O)[O-])ccc1NC(=O)C(F)(F)F
inactive: [2] > 100 µM | [16] > 100 µM | [3] > 100 µM | [4] > 100 µM | [17] > 84.3 µM | [5] > 100 µM | [6] > 100 µM | [7] > 88.7 µM | [8] > 49.7 µM | [9] > 74.3 µM | [10] > 42.3 µM | [11] > 100 µM | [12] 58.7 µM | [13] > 60.5 µM | [14] > 100 µM | [15] > 100 µM | [18] > 57.1 µM

CN(CCO)CCCC1COc2ccccc2O1 (stereo not drawn)
inactive: [1] > 100 µM | [2] > 100 µM | [16] > 100 µM | [3] > 100 µM | [4] > 100 µM | [17] > 100 µM | [5] 63.8 µM | [6] > 100 µM | [7] > 100 µM | [8] > 100 µM | [9] > 100 µM | [10] > 100 µM | [11] > 100 µM | [12] > 100 µM | [13] > 100 µM | [14] > 100 µM | [15] > 100 µM | [18] > 100 µM

CC(C)Sc1nc(C#N)cc2c1CCCC2
inactive: [19] 56.9 µM | [1] 38.2 µM | [2] 36.1 µM | [16] 42.5 µM | [3] 19.5 µM | [4] 51.3 µM | [17] 63.5 µM | [5] 40.6 µM | [6] > 100 µM | [7] 40.6 µM | [8] 54 µM | [9] 37.1 µM | [10] 48.9 µM | [11] > 100 µM | [12] 33.5 µM | [13] 48.9 µM | [14] 46.5 µM | [15] 91.8 µM

COC(=O)C(=O)C(C(C)=O)C(=O)NCc1ccc(OC)c(OC)c1 (stereo not drawn)
inactive: [2] > 100 µM | [16] > 100 µM | [3] > 100 µM | [4] > 100 µM | [17] > 100 µM | [5] > 100 µM | [6] > 100 µM | [7] > 100 µM | [8] > 100 µM | [9] > 100 µM | [10] > 100 µM | [11] > 100 µM | [12] > 100 µM | [13] > 100 µM | [14] > 100 µM | [15] > 100 µM | [18] > 100 µM

COC(CCC[N+](C)(C)C)CC[N+](C)(C)C (stereo not drawn)
inactive: [1] > 100 µM | [2] > 100 µM | [16] > 100 µM | [3] > 100 µM | [4] > 100 µM | [17] > 100 µM | [5] > 100 µM | [6] > 100 µM | [7] > 100 µM | [8] > 100 µM | [9] > 100 µM | [10] > 100 µM | [11] > 100 µM | [13] > 100 µM | [14] > 100 µM | [15] > 100 µM | [18] > 100 µM
